Experimental data reported in patent publication US11535629B2, “Dioxoloisoquinolinone derivatives and use thereof” (HANMI PHARMACEUTICAL CO., LTD., priority 2020, dated 2022).

Test system: KARPAS-422 cells
Experiment: Cell growth inhibition test (CTG method)
Assay type: cell-based
Settings: Homo sapiens, KARPAS-422, 168 h, KARPAS-422 (EZH2^Y641N mutant), culturing for 7 days; read-out: Cell growth inhibitory activity (GI50, nM) KARPAS-422 (EZH2^Y641N mutant)
Protocol: The cultured cell strain was prepared at 1.8×10^4 cells/400 μL and placed in a 48-well plate.

| SMILES | GI50 |
| --- | --- |
| Cc1cc(C)c(CN2CCc3c(c(C)c4c(c3-c3ccc(F)nc3)O[C@](C)([C@H]3CC[C@H](N(C)C)CC3)O4)C2=O)c(=O)[nH]1 [Compound 36, (R)-6-((4,6-dimethyl-2-oxo-1,2-dihydropyridin-3-yl)methyl)-2-(trans-4-(dimethylamino)cyclohexyl)-9-(6-fluoropyridin-3-yl)-2,4-dimethyl-7,8-dihydro-[1,3]dioxolo[4,5-g]isoquinolin-5(6H)-one] | 5.8 nM |
| Cc1cc(C)c(CN2CCc3c(c(C)c4c(c3-c3ccc(F)nc3)O[C@@](C)([C@H]3CC[C@H](N(C)C)CC3)O4)C2=O)c(=O)[nH]1 [Compound 37, (S)-6-((4,6-dimethyl-2-oxo-1,2-dihydropyridin-3-yl)methyl)-2-(trans-4-(dimethylamino)cyclohexyl)-9-(6-fluoropyridin-3-yl)-2,4-dimethyl-7,8-dihydro-[1,3]dioxolo[4,5-g]isoquinolin-5(6H)-on] | > 1000 nM |
| Cc1cc(C)c(CN2CCc3c(c(C)c4c(c3-c3cnn(C)c3)O[C@](C)([C@H]3CC[C@H](N(C)C)CC3)O4)C2=O)c(=O)[nH]1 [Compound 38, (R)-6-((4,6-dimethyl-2-oxo-1,2-dihydropyridin-3-yl)methyl)-2-(trans-4-(dimethylamino)cyclohexyl)-2,4-dimethyl-9-(1-methyl-1H-pyrazol-4-yl)-7,8-dihydro-[1,3]dioxolo[4,5-g]isoquinolin-5(6H)-on] | 5.8 nM |
| Cc1cc(C)c(CN2CCc3c(c(C)c4c(c3-c3cnn(C)c3)O[C@@](C)([C@H]3CC[C@H](N(C)C)CC3)O4)C2=O)c(=O)[nH]1 [Compound 39, (S)-6-((4,6-dimethyl-2-oxo-1,2-dihydropyridin-3-yl)methyl)-2-(trans-4-(dimethylamino)cyclohexyl)-2,4-dimethyl-9-(1-methyl-1H-pyrazol-4-yl)-7,8-dihydro-[1,3]dioxolo[4,5-g]isoquinolin-5(6H)-one] | > 1000 nM |
| Cc1cc(C)c(CN2CCc3c(c(C)c4c(c3-c3ccc(C)o3)O[C@@](C)([C@H]3CC[C@H](N(C)C)CC3)O4)C2=O)c(=O)[nH]1 [Compound 41, (S)-6-((4,6-dimethyl-2-oxo-1,2-dihydropyridin-3-yl)methyl)-2-(trans-4-(dimethylamino)cyclohexyl)-2,4-dimethyl-9-(5-methylfuran-2-yl)-7,8-dihydro-[1,3]dioxolo[4,5-g]isoquinolin-5(6H)-one] | > 1000 nM |
| Cc1cc(C)c(CN2CCc3c(c(C)c4c(c3-c3ccc(C)s3)O[C@](C)([C@H]3CC[C@H](N(C)C)CC3)O4)C2=O)c(=O)[nH]1 [Compound 42, (R)-6-((4,6-dimethyl-2-oxo-1,2-dihydropyridin-3-yl)methyl)-2-(trans-4-(dimethylamino)cyclohexyl)-2,4-dimethyl-9-(5-methylthiophen-2-yl)-7,8-dihydro-[1,3]dioxolo[4,5-g]isoquinolin-5(6H)-one] | 5.7 nM |
| Cc1cc(C)c(CN2CCc3c(c(C)c4c(c3-c3ccc(C)s3)O[C@@](C)([C@H]3CC[C@H](N(C)C)CC3)O4)C2=O)c(=O)[nH]1 [Compound 43, (S)-6-((4,6-dimethyl-2-oxo-1,2-dihydropyridin-3-yl)methyl)-2-(trans-4-(dimethylamino)cyclohexyl)-2,4-dimethyl-9-(5-methylthiophen-2-yl)-7,8-dihydro-[1,3]dioxolo[4,5-g]isoquinolin-5(6H)-one] | > 1000 nM |
| Cc1cc(C)c(CN2CCc3c(c(C)c4c(c3-c3cccnc3)O[C@@](C)([C@H]3CC[C@H](N(C)C)CC3)O4)C2=O)c(=O)[nH]1 [Compound 45, (S)-6-((4,6-dimethyl-2-oxo-1,2-dihydropyridin-3-yl)methyl)-2-(trans-4-(dimethylamino)cyclohexyl)-2,4-dimethyl-9-(pyridin-3-yl)-7,8-dihydro-[1,3]dioxolo[4,5-g]isoquinolin-5(6H)-one] | > 1000 nM |
| Cc1cc(C)c(CN2CCc3c(c(C)c4c(c3-c3cncnc3)O[C@](C)([C@H]3CC[C@H](N(C)C)CC3)O4)C2=O)c(=O)[nH]1 [Compound 46, (R)-6-((4,6-dimethyl-2-oxo-1,2-dihydropyridin-3-yl)methyl)-2-(trans-4-(dimethylamino)cyclohexyl)-2,4-dimethyl-9-(pyrimidin-5-yl)-7,8-dihydro-[1,3]dioxolo[4,5-g]isoquinolin-5(6H)-one] | 7 nM |
| Cc1cc(C)c(CN2CCc3c(c(C)c4c(c3-c3cncnc3)O[C@@](C)([C@H]3CC[C@H](N(C)C)CC3)O4)C2=O)c(=O)[nH]1 [Compound 47, (S)-6-((4,6-dimethyl-2-oxo-1,2-dihydropyridin-3-yl)methyl)-2-(trans-4-(dimethylamino)cyclohexyl)-2,4-dimethyl-9-(pyrimidin-5-yl)-7,8-dihydro-[1,3]dioxolo[4,5-g]isoquinolin-5(6H)-one] | > 1000 nM |
| Cc1cc(C)c(CN2CCc3c(c(C)c4c(c3-c3cccn3C)O[C@@](C)([C@H]3CC[C@H](N(C)C)CC3)O4)C2=O)c(=O)[nH]1 [Compound 49, (S)-6-((4,6-dimethyl-2-oxo-1,2-dihydropyridin-3-yl)methyl)-2-(trans-4-(dimethylamino)cyclohexyl)-2,4-dimethyl-9-(1-methyl-1H-pyrrol-2-yl)-7,8-dihydro-[1,3]dioxolo[4,5-g]isoquinolin-5 (6H)-one] | > 1000 nM |
| Cc1cc(C)c(CN2CCc3c(c(C)c4c(c3-c3ccsc3)O[C@@](C)([C@H]3CC[C@H](N(C)C)CC3)O4)C2=O)c(=O)[nH]1 [Compound 51, (S)-6-((4,6-dimethyl-2-oxo-1,2-dihydropyridin-3-yl)methyl)-2-(trans-4-(dimethylamino)cyclohexyl)-2,4-dimethyl-9-(thiophen-3-yl)-7,8-dihydro-[1,3]dioxolo[4,5-g]isoquinolin-5(6H)-one] | > 1000 nM |
| Cc1cc(C)c(CN2CCc3c(c(C)c4c(c3-c3cncs3)O[C@@](C)([C@H]3CC[C@H](N(C)C)CC3)O4)C2=O)c(=O)[nH]1 [Compound 53, (S)-6-((4,6-dimethyl-2-oxo-1,2-dihydropyridin-3-yl)methyl)-2-(trans-4-(dimethylamino)cyclohexyl)-2,4-dimethyl-9-(thiazol-5-yl)-7,8-dihydro-[1,3]dioxolo[4,5-g]isoquinolin-5(6H)-one] | > 1000 nM |
| Cc1cc(C)c(CN2CCc3c(c(C)c4c(c3-n3ccnc3)O[C@](C)([C@H]3CC[C@H](N(C)C)CC3)O4)C2=O)c(=O)[nH]1 [Compound 54, (R)-6-((4,6-dimethyl-2-oxo-1,2-dihydropyridin-3-yl)methyl)-2-(trans-4-(dimethylamino)cyclohexyl)-9-(1H-Imidazol-1-yl)-2,4-dimethyl-7,8-dihydro-[1,3]dioxolo[4,5-g]isoquinolin-5(6H)-one] | 28 nM |
| Cc1cc(C)c(CN2CCc3c(c(C)c4c(c3-n3ccnc3)O[C@@](C)([C@H]3CC[C@H](N(C)C)CC3)O4)C2=O)c(=O)[nH]1 [Compound 55, (S)-6-((4,6-dimethyl-2-oxo-1,2-dihydropyridin-3-yl)methyl)-2-(trans-4-(dimethylamino)cyclohexyl)-9-(1H-imidazol-1-yl)-2,4-dimethyl-7,8-dihydro-[1,3]dioxolo[4,5-g]isoquinolin-5(6H)-one] | > 1000 nM |
| Cc1cc(C)c(CN2CCc3c(c(C)c4c(c3-c3ccoc3)O[C@](C)([C@H]3CC[C@H](N(C)C)CC3)O4)C2=O)c(=O)[nH]1 [Compound 56, (R)-6-((4,6-dimethyl-2-oxo-1,2-dihydropyridin-3-yl)methyl)-2-(trans-4-(dimethylamino)cyclohexyl)-9-(furan-3-yl)-2,4-dimethyl-7,8-dihydro-[1,3]dioxolo[4,5-g]isoquinolin-5(6H)-one] | 7.2 nM |
| Cc1cc(C)c(CN2CCc3c(c(C)c4c(c3-c3ccoc3)O[C@@](C)([C@H]3CC[C@H](N(C)C)CC3)O4)C2=O)c(=O)[nH]1 [Compound 57, (S)-6-((4,6-dimethyl-2-oxo-1,2-dihydropyridin-3-yl)methyl)-2-(trans-4-(dimethylamino)cyclohexyl)-9-(furan-3-yl)-2,4-dimethyl-7,8-dihydro-[1,3]dioxolo[4,5-g]isoquinolin-5(6H)-one] | > 1000 nM |
| Cc1cc(C)c(CN2CCc3c(c(C)c4c(c3-c3ccco3)O[C@](C)([C@H]3CC[C@H](N)CC3)O4)C2=O)c(=O)[nH]1 [Compound 58, (R)-2-(trans-4-aminocyclohexyl)-6-((4,6-dimethyl-2-oxo-1,2-dihydropyridin-3-yl)methyl)-9-(furan-2-yl)-2,4-dimethyl-7,8-dihydro-[1,3]dioxolo[4,5-g]isoquinolin-5(6H)-one] | 28 nM |
| Cc1cc(C)c(CN2CCc3c(c(C)c4c(c3-c3ccco3)O[C@@](C)([C@H]3CC[C@H](N)CC3)O4)C2=O)c(=O)[nH]1 [Compound 59, (S)-2-(trans-4-aminocyclohexyl)-6-((4,6-dimethyl-2-oxo-1,2-dihydropyridin-3-yl)methyl)-9-(furan-2-yl)-2,4-dimethyl-7,8-dihydro-[1,3]dioxolo[4,5-g]isoquinolin-5(6H)-one] | > 1000 nM |
| CN[C@H]1CC[C@H]([C@]2(C)Oc3c(C)c4c(c(-c5ccco5)c3O2)CCN(Cc2c(C)cc(C)[nH]c2=O)C4=O)CC1 [Compound 60, (R)-6-((4,6-dimethyl-2-oxo-1,2-dihydropyridin-3-yl)methyl)-9-(furan-2-yl)-2,4-dimethyl-2-(trans-4-(methylamino)cyclohexyl)-7,8-dihydro-[1,3]dioxolo[4,5-g]isoquinolin-5(6H)-one] | 19 nM |
| CN[C@H]1CC[C@H]([C@@]2(C)Oc3c(C)c4c(c(-c5ccco5)c3O2)CCN(Cc2c(C)cc(C)[nH]c2=O)C4=O)CC1 [Compound 61, (S)-6-((4,6-dimethyl-2-oxo-1,2-dihydropyridin-3-yl)methyl)-9-(furan-2-yl)-2,4-dimethyl-2-(trans-4-(methylamino)cyclohexyl)-7,8-dihydro-[1,3]dioxolo[4,5-g]isoquinolin-5(6H)-one] | > 1000 nM |
| Cc1cc(C)c(CNC(=O)c2cc(Cl)c3c(c2C)O[C@@](C)([C@H]2CC[C@H](N(C)C)CC2)O3)c(=O)[nH]1 [Control B, (2R)-7-chloro-2-[trans-4-(dimethylamino)cyclohexyl]-N-[(4,6-dimethyl-2-oxo-1,2-dihydropyridin-3-yl)methyl]-2,4-dimethyl-1,3-benzodioxole-5-carboxamide, reference compound] | 1.3 to 15 nM |
